The IC50 is the midpoint of a concentration-inhibition curve.

One assay deals with GR complex. The assay is described as follows: modulation of [35S]TBPS binding in rat cerebral cortex P2 homogenate. Further details: species or system Sprague-Dawley rats; IMAX: unit not given here. The settings on record: for IC50: concentration of compounds to inhibit 50% of control [35S]TBPS binding, 2 nM [35S]TBPS, 25°C, 90 minutes, no unit printed; for IMAX: maximum inhibition of [35S]TBPS binding, I* = Inactive. Here is the method: We performed several experiments to determine the nature of the modulation of [^35S]TBPS as affected by the compounds of the invention.
These procedures were performed as follows:
Brains from male Sprague-Dawley rats were removed immediately following sacrifice and the cerebral cortices dissected over ice. […] Briefly, the cortices were gently homogenized in 0.32 M sucrose followed by centrifugation at 1000 x g for 10 minutes. The supernatant was collected and centrifuged at 9000 x g for 20 minutes. The resultant P2 pellet was suspended as a 10% (original wet weight/volume) suspension in 50 mM Na/K phosphate buffer (pH 7.4) 200 mM NaCI to form the homogenate.
One hundred microliter […] aliquots of the P2 homogenate (0.5 milligrams (mg) protein) were incubated with 2 nanomolar (nM) [^35S]TBPS (70-110 curies/millimole;, New England Nuclear, Boston, MA) in the presence or absence of the naturally occurring steroids or their synthetic derivatives to be tested. The tested compounds were dissolved in dimethylsulfoxide (Baker Chem. Co., Phillipsbury, NJ) and added to the incubation mixture in 5 µL aliquots. The incubation mixture was brought to a final volume of 1 mL with buffer. Nonspecific binding was defined as binding in the presence of […]. The effect and specificity of GABA (Sigma Chem. Co., St. Louis, MO) was evaluated by performing all assays in the presence of GABA plus (+)bicuculline (Sigma Chem. Co.). Incubations maintained at 25°C for 90 minutes (steady state conditions) were terminated by rapid filtration through glass fiber filters (No. 32, Schleicher and Schuell, Keene, NH). Filter-bound radioactivity was quantitated by liquid scintillation spectrophotometry.
Various compounds were screened to determine their potential as modulators of [^35S]TBPS binding in vitro. These assays were performed in accordance with the above discussed procedures. […] It is an indication of a compound's in vitro potency. Maximum inhibition is an indication of a compound's in vitro efficacy.

Assay [1] deals with metrazol induced convulsions. The assay can be described thus: animal or person. The settings on record: for % Protected: 10 mg/kg. The format is in vivo, mice. Here is the method: Experiments were also performed to determine the physiological relevance of neuroactive steroid and GABA receptor interactions by assessing the ability of the compounds of and used in the invention to prevent metrazol induced convulsions in mice. […] The time to onset of myoclonus (presence of forelimb clonic activity) induced by metrazol was determined by observing each mouse for a period of 30 minutes. […]
The anticonvulsant tests are similar to that described above. […] The number of animals with tonic and/or clonic convulsions was recorded. In the maximal electroshock test, 50 mA of current at 60 Hz was delivered through corneal electrodes for 200 msec to induce tonic seizure. The ability of compounds to abolish the tonic component was defined as the endpoint. General CNS depression potential was determined by a rotorod test 10 minutes after the injection of compounds where the number of mice staying on a rotating (6 rpm) rod for 1 minute in one of the three trials was determined. […]

The mark [2] stands for this setting: IP, 50% hpbcd, 10 minutes prior to metrazol (85 mg/kg).
Setting [3] is: 60 mg/kg, 1 hr, IP, anti-metrazol.

At GR complex, `C=C[C@@]1(O)CC[C@@]2(C)[C@@H](CC[C@@H]3[C@@H]2CC[C@]2(C)[C@@H](C(=O)COC(=O)CCC(=O)O)CC[C@@H]32)C1` [3α,21-dihydroxy-3β-ethenyl-5α-pregnan-20-one 21-hemisuccinate] gave an IC50 of 377 nM and an IMAX of 89.

As for `CC12CCC(O)(C(F)(F)F)CC1CCC1C2CCC2(C)C(C(=O)CBr)CCC12` (stereo not drawn) [21-bromo-3α-hydroxy-3β-trifluoromethyl-5β-pregnan-20-one], at GR complex, the concentration for half-maximal inhibition (IC50) stood at 1530 nM and the IMAX worked out at 102.

In the case of `C[C@@]1(O)CC[C@@]2(C)[C@@H](CC[C@@H]3[C@@H]2CC[C@]2(C)[C@@H](C(=O)COC(=O)CCC(=O)O)CC[C@@H]32)C1` [3α,21-dihydroxy-3β-methyl-5α-pregnan-20-one 21-hemisuccinate], on GR complex, the IC50 turned out to be 241 nM and the IMAX was 92. The “% Protected” value in assay [1] (IP, water) is 37.5%.

At GR complex, `CC(=O)[C@H]1CC[C@H]2[C@@H]3CC[C@H]4C[C@](O)(C(F)(F)F)CC[C@]4(C)[C@H]3CC[C@]12C` [3α-Hydroxy-3β-trifluoromethyl-5α-pregnan-20-one] showed a 50% inhibitory concentration (IC50) of 244 nM and an IMAX of 44. In assay [1] (setting [2]), the “% Protected” value is listed as 62.5%.

Regarding `CC(=O)C1CCC2C3CCC4CC(OC(=O)c5ccc(Cl)cc5)CCC4(C)C3CCC12C` (stereo not shown) [4-Chlorophenyl], in assay [1] (setting [3]), the “% Protection” value was determined as 50%.

Consider `CC(O)C1CCC2C3CCC4CC(C)(O)CCC4(C)C3CCC12C` (stereo not drawn) [3α,20β-dihydroxy-3β-methyl-5β-pregnane], for which, at GR complex, the concentration for half-maximal inhibition (IC50) is 455 nM and the IMAX is reported as 105.

At GR complex, `CCC(=O)[C@H]1CC[C@H]2[C@@H]3CC[C@@H]4C[C@H](O)CC[C@]4(C)[C@H]3CC[C@]12C` [3α-hydroxy-21-methyl-5β-pregnan-20-one] registered an IC50 of 78 nM and an IMAX of 100.

As for `C#CC1(O)CCC2(C)C(CCC3C2CCC2(C)C(C(C)O)CCC32)C1` (stereo not drawn) [3α,20α-dihydroxy-3β-ethynyl-5β-pregnane, 3β-Ethynyl-3α,20α-dihydroxy-5β-pregnane], at GR complex, the IC50 amounted to 557 nM and the IMAX is listed as 98.

On to `CCCCC(=O)OC1CCC2(C)C(CCC3C2CCC2(C)C(C(C)=O)CCC32)C1` (stereo not shown) [Butyl], for which the “% Protection” value in assay [1] (mouse, in vivo) was 33%.

For the compound `CCCC(CCC)C(=O)OC1CCC2(C)C(CCC3C2CCC2(C)C(C(C)=O)CCC32)C1` (stereo not shown) [Example 4-Heptyl], the “% Protection” value in assay [1] (60 mg/kg, IP, 4 hour, anti-metrazol) is 16 (4 hour) %.

In the case of `CC(=O)OC1CCC2(C)C(CCC3C2CCC2(C)C(C(C)=O)CCC32)C1` (stereo not shown) [Methyl], the “% Protection” value in assay [1] (setting [3]) is on record as 25%.

On to `CC(=O)[C@H]1CC[C@H]2[C@@H]3CC[C@H]4C[C@](C)(O)CC[C@]4(C)[C@H]3C(=O)C[C@]12C` [3α-hydroxy-3β-methyl-5α-pregnane-11,20-dione], for which, at GR complex, the 50% inhibitory concentration (IC50) was 958 nM and the IMAX is recorded as 100.

At GR complex, `CC(=O)C1CCC2C3CCC4CC(O)(C#CCCCCl)CCC4(C)C3CCC12C` (stereo not drawn) [3β-(5'-chloropentyn-1'-yl)-3α-hydroxy-5β-pregnan-20-one] registered an IC50 of 44 nM and an IMAX of 98.

Turning to `COc1ccc(C(=O)OC2CCC3(C)C(CCC4C3CCC3(C)C(C(C)=O)CCC43)C2)cc1` (stereo not shown) [4-Methoxyphenyl], in assay [1] (setting [3]), the “% Protection” value was 17%.

Regarding `CCC(=O)OC1CCC2(C)C(CCC3C2CCC2(C)C(C(C)=O)CCC32)C1` (stereo not shown) [Ethyl], the “% Protection” value in assay [1] (setting [3]) is listed as 75%.

At GR complex, `C#CC1(O)CCC2(C)C(CCC3C2CCC2(C)C(C(C)O)CCC32)C1` (stereo not drawn) [3α,20α-dihydroxy-3β-ethynyl-5α-pregnane, 3β-Ethynyl-3α,20α-dihydroxy-5α-pregnane] gave an IC50 of 202 nM and an IMAX of 56.

With `CC(=O)C1CCC2C3CCC4CC(OC(=O)c5cccnc5)CCC4(C)C3CCC12C` (stereo not shown) [Example 3-Pyridyl], in assay [1] (60 mg/kg, IP, 20 hour, anti-metrazol), the “% Protection” value is 50 (20 hour) %.

As to `CC(=O)[C@H]1CC[C@H]2[C@@H]3CC[C@@H]4C[C@](C)(O)CC[C@@H]4[C@H]3CC[C@]12C` [3α-hydroxy-3β-methyl-5β-19-nor-pregnan-20-one], on GR complex, the IC50 worked out at 26 nM and the IMAX turned out to be 94.

Regarding `CC(=O)C1CCC2C3CCC4CC(OC(=O)c5ccccc5)CCC4(C)C3CCC12C` (stereo not shown) [Phenyl], the “% Protection” value in assay [1] (setting [3]) turned out to be 33%.

On to `CCCCC#C[C@@]1(O)CC[C@@]2(C)[C@H](CC[C@@H]3[C@@H]2CC[C@]2(C)[C@@H](C(C)=O)CC[C@@H]32)C1` [3β-(1-hexynyl)-3α-hydroxy-5β-pregnan-20-one], for which, in assay [1] (setting [2]), the “% Protected” value was 37.5%.

`CC(=O)C1=CC[C@H]2[C@@H]3CC[C@@H]4C[C@](C)(O)CC[C@]4(C)[C@H]3CC[C@]12C` [3α-hydroxy-3β-methyl-5β-pregn-16-en-20-one]: at GR complex, the IC50 amounted to 955 nM and the IMAX stood at 100.

On to `CC(C)(O)[C@H]1CC[C@H]2[C@@H]3CC[C@@H]4C[C@](C)(O)CC[C@]4(C)[C@H]3CC[C@]12C` [3α,20-Dihydroxy-3β,20-dimethyl-5β-pregnane], for which the “% Protected” value in assay [1] (IP, micro soln.) came out at 22.2%.

At GR complex, `CC(=NCCO)[C@H]1CC[C@H]2[C@@H]3CC[C@H]4C[C@](C)(O)CC[C@]4(C)[C@H]3CC[C@]12C` [N-(3α-hydroxy-3β-methyl-5α-pregnan-20-ylidine)ethanolamine] yielded a half-maximal inhibitory concentration (IC50) of 101 nM and an IMAX of 93.

`CCCC(=O)O[C@@H]1CC[C@@]2(C)[C@@H](CC[C@@H]3[C@@H]2CC[C@]2(C)[C@@H](C(C)=O)CC[C@@H]32)C1` [Propyl]: in assay [1] (setting [3]), the “% Protection” value is 75%.

At GR complex, `C[C@]12CC[C@@H](O)C[C@@H]1CC[C@@H]1[C@@H]2CC[C@]2(C)[C@@H](C(=O)COC(=O)CCC(=O)O)CC[C@@H]12` [3α,21-dihydroxy-5α-pregnan-20-one 21-hemisuccinate] showed a half-maximal inhibitory concentration (IC50) of 117 nM and an IMAX of 91.

Turning to `CC(=O)[C@H]1CC[C@H]2[C@@H]3CCC4=CC(=O)CC[C@]4(C)[C@H]3CC[C@]12C` [progesterone, reference compound], at GR complex, the IC50 was > 1000 nM and the IMAX entry is recorded as “I*”.

Consider `CC(=O)C1CCC2C3CCC4CC(OC(=O)C(C)C)CCC4(C)C3CCC12C` (stereo not shown) [Example 2-Propyl], for which the “% Protection” value in assay [1] (setting [3]) is 75%.

Regarding `CC(O)C1CCC2C3CCC4CC(C)(O)CCC4(C)C3CCC12C` (stereo not drawn) [3α,20β-dihydroxy-3β-methyl-5α-pregnane], at GR complex, the IC50 was determined as 924 nM and the IMAX is 99.

On GR complex, `CCC(=O)[C@H]1CC[C@H]2[C@@H]3CC[C@H]4C[C@](C)(O)CC[C@]4(C)[C@H]3CC[C@]12C` [3α-hydroxy-3β,21-dimethyl-5α-pregnan-20-one] returned an IC50 of 89 nM and an IMAX of 85.

Consider `CC(C)CCC[C@@H](C)[C@H]1CC[C@H]2[C@@H]3CC=C4C[C@@H](O)CC[C@]4(C)[C@H]3CC[C@]12C` [cholesterol, reference compound], for which, at GR complex, the half-maximal inhibitory concentration (IC50) was > 1000 nM and the IMAX result is listed as “I*”.

With `CC(=O)[C@H]1CC[C@H]2[C@@H]3CC[C@H]4C[C@](C)(O)CC[C@]4(C)[C@H]3C=C[C@]12C` [3α-hydroxy-3β-methyl-5α-pregn-11-en-20-one], on GR complex, the half-maximal inhibitory concentration (IC50) was 242 nM and the IMAX amounted to 76.

Turning to `C[C@]12C[C@H](O)[C@H]3[C@@H](CCC4=CC(=O)CC[C@@]43C)[C@@H]1CC[C@@H]2C(=O)CO` [corticosterone, reference compound], on GR complex, the half-maximal inhibitory concentration (IC50) is > 1000 nM and the IMAX result was “I*”.

At GR complex, `C=C[C@@]1(O)CC[C@@]2(C)[C@@H](CC[C@@H]3[C@@H]2CC[C@]2(C)[C@@H](C(=O)CO)CC[C@@H]32)C1` [3α,21-dihydroxy-3β-ethenyl-5α-pregnan-20-one] came in with a 50% inhibitory concentration (IC50) of 288 nM and an IMAX of 101.

On GR complex, `COC(=O)CCC(=O)OCC(=O)C1CCC2C3CCC4CC(O)(C(F)(F)F)CCC4(C)C3CCC12C` (stereo not drawn) [3α,21-dihydroxy-3β-trifluoromethyl-5β-pregnan-20-one methyl 21-succinate] returned an IC50 of 480 nM and an IMAX of 86.

The values are drawn from EP0808325B1, “[…] […] SERIES FOR […] GABA RECEPTOR” (priority 1994, dated 1996).
